Experimental data as given in paper PMC7470151, “Synthesis and evaluation of 2,4,5-trisubstitutedthiazoles as carbonic anhydrase-III inhibitors” (Journal of Enzyme Inhibition and Medicinal Chemistry, 2020).

Tests used:
[1] = molecular target: T1, Bovine carbonic anhydrase, isozyme III (Bos taurus, UniProt Q3SZX4); experiment: Carbonic anhydrase-III inhibition assay by size exclusion Hummel–Dreyer method (HDM) chromatography; type: binding; details: HDM size exclusion HPLC; 0.24 mM analyte in mobile phase; 10% acetonitrile, phosphate buffer pH 6.5; 37 °C; CA-III injected at three concentrations
T1 construct: purchased Biovar Ltd, Armenia
T1 sequence (Q3SZX4 1-260): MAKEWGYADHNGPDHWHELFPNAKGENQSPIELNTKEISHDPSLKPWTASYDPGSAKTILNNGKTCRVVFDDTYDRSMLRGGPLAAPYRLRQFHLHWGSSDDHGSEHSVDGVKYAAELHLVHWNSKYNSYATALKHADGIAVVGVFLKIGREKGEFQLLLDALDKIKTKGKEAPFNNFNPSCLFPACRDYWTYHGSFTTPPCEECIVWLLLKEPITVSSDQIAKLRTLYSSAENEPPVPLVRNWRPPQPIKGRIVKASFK
Experimental: HPLC screening was conducted on the LC-2010A HT HPLC system, coupled with column temperature controller, degasser, auto sampler, and isocratic elution system, LC-solution software (to calculate peak area), Shimadzu Corporation, Kyoto, Japan. Back pressure was maintained around 6 MPA. A Phenomenex BioSep-SEC s2000, 300 × 7.8 mm column was used for size exclusion chromatography.
Bovine carbonic anhydrase, isozyme III (Biovar Ltd, Armenia) was stored at 0 °C in refrigerator until use. Enzyme was left for few minutes at room temperature before analysis. HPLC-grade methanol and acetonitrile (Fisher Scientific, Loughborough, UK) were used without further purification. NaH2PO4.H2O (Gainland, Deeside, UK), HCl (Carlo Erba, Italy), NaOH (Lonver, UK), and deionised water were used for the preparation of mobile phase. All the required chemicals for the synthesis of target compounds (12–16b) were procured either from Fisher Scientific, Loughborough, UK or Sigma-Aldrich, St. Louis, MO.
Each target compounds (12–16b) was dissolved in a mixture of acetonitrile: phosphate buffer, pH 6.5 (1:9 v/v) to obtain a final concentration of 0.24 mM. Subsequently, filtration and degassing by sonication were conducted for the mobile phase. Three different enzyme (CA-III) concentrations of […] were prepared from the stock solution (containing 0.865 mg in 10 mL of distilled water) by subsequent dilution method and injected separately in each run in the chromatographic system. All samples were used in duplicate. Vanillic acid was used as a positive control, and toluene was used as a negative control.
The mobile phase used for analysis was chosen according to the optimised conditions obtained, where 10% of organic modifier, 30 mM phosphate buffer (pH = 6.5) and 37 °C temperature was used. Column was pre-equilibrated with the mobile phase for 50 min. The flow rate of mobile phase was maintained at 1 mL/min during the run time. A wavelength of 230 nm (λmax) was selected for the analysis of all the tested compounds.
CA-III inhibitory activities of all the 17 target compounds (12–16b) as shown in Table 1 were carried out by using size exclusion HDM chromatography. The HDM chromatography was preferred over colorimetric assay of CA inhibitors, due to the susceptibility of the colorimetric methods to the intrinsic acidic or alkaline properties of analytes (inhibitors), including the lower catalytic activity of CA-III in CO2 hydration. Moreover, in HDM chromatographic method, the dilution effect of the mobile phase not only provides comparatively larger space for interaction between the macromolecule (CA-III) and analytes, but also lowers the probability of self-aggregation of macromolecules[35–37]^,[41]. The HDM was further optimised prior to use, where mobile phase was buffered to maintain the pH = 6.5 to mimic the physiological condition and to minimise the intrinsic properties of analytes. Moreover, acetonitrile (10%) was used to facilitate the elution of analytes (inhibitors) from the hydrophobic column as well as to prevent the adhesion of macromolecule to the stationary phase of the column. A constant optimised temperature of 37 °C was maintained throughout the chromatographic run, as the increase in temperature could not only influence the protein-ligand interaction but also affect the longevity of the column.
The chromatographic analysis by HDM is basically based on the measurement of the intensity of the formation of vacancy (negative) peak due to the subtraction of CA-III bound portion of analytes from the mobile phase. This method is also independent of the enzyme catalytic activity, thereby considered as more sensitive method for the estimation of inhibitory activities of analytes as compared to the colorimetric assay[35–37]^,[41]. Thus, weak inhibitors created weak vacancy peaks independent of the enzyme concentrations. […]

Row | melting point | Ki [1] | Structure (SMILES)
1 | 163 °C | 81.2 µM | Nc1nc(C(=O)O)c(-c2ccc(Cl)c([N+](=O)[O-])c2)s1 [Compound 15a, 2-Amino-5-(4-chloro-3-nitrophenyl)thiazole-4-carboxylic acid]
2 | – | > 500 µM | COC(=O)c1nc(N)sc1-c1ccc(Cl)c([N+](=O)[O-])c1 [Compound 15]
3 | – | 0.5 µM | Nc1nc(C(=O)O)c(-c2ccccc2)s1 [Compound 12a, 2-amino-5-phenylthiazole-4-carboxylic acid]
4 | 147 °C | > 500 µM | COC(=O)c1nc(NC(=O)Nc2ccccc2)sc1-c1ccc(C)cc1 [Compound 13b, Methyl-2-(3-phenylureido)-5-(p-tolyl)thiazole-4-carboxylate]
5 | – | > 500 µM | Nc1nc(C(=O)O)c(Cc2ccccc2)s1 [Compound 16a]
6 | 143 °C | > 500 µM | COC(=O)c1nc(NC(=O)Nc2ccccc2)sc1-c1ccc(S(C)(=O)=O)cc1 [Compound 14d, Methyl 5-(4-(methylsulfonyl)phenyl)-2-(3-phenylureido)thiazole-4-carboxylate]
7 | 238 °C | 86.6 µM | CS(=O)(=O)c1ccc(-c2sc(N)nc2C(=O)O)cc1 [Compound 14a, 2-Amino-5-(4-(methylsulfonyl)phenyl)thiazole-4-carboxylic acid]
8 | – | 6.8 µM | COc1cc(C(=O)O)ccc1O [Vanillic acid, reference compound]
9 | – | > 500 µM | COC(=O)c1nc(N)sc1Cc1ccccc1 [Compound 16]
10 | – | > 500 µM | COC(=O)c1nc(NC(=O)c2ccc([N+](=O)[O-])cc2)sc1-c1ccccc1 [Compound 12b, Methyl-2-(4-nitrobenzamido)-5-substituted-thiazole-4-carboxylate]
11 | – | > 500 µM | COC(=O)c1nc(N)sc1-c1ccccc1 [Compound 12]
12 | 201 °C | > 500 µM | COC(=O)c1nc(N)sc1-c1ccc(C)cc1 [Compound 13, Methyl-2-amino-5-(p-tolyl)thiazole-4-carboxylate]
13 | 260 °C | > 500 µM | COC(=O)c1nc(N)sc1-c1ccc(S(C)(=O)=O)cc1 [Compound 14, Methyl-2-amino-5-(4-(methylsulfonyl)phenyl)thiazole-4-carboxylate]
14 | 174 °C | 186 µM | COc1ccc(C(=O)Nc2nc(C(=O)O)c(-c3ccc(S(C)(=O)=O)cc3)s2)cc1 [Compound 14c, 2-(4-Methoxybenzamido)-5-(4-(methylsulfonyl)phenyl)thiazole-4-carboxylic acid]
15 | 239 °C | > 500 µM | COC(=O)c1nc(NC(=O)c2ccc(OC)cc2)sc1-c1ccc(S(C)(=O)=O)cc1 [Compound 14b, Methyl-2-(4-methoxybenzamido)-5-(4-(methylsulfonyl)phenyl)thiazole-4-carboxylate]
16 | 226 °C | 174 µM | Cc1ccc(-c2sc(NC(=O)Nc3ccccc3)nc2C(=O)O)cc1 [Compound 13c, 2-(3-Phenylureido)-5-(p-tolyl)thiazole-4-carboxylic acid]
17 | 226 °C | > 500 µM | COC(=O)c1nc(NC(=O)Nc2ccccc2)sc1Cc1ccccc1 [Compound 16b, Methyl-5-benzyl-2-(3-phenylureido)thiazole-4-carboxylate]
18 | 236 °C | 18.9 µM | Cc1ccc(-c2sc(N)nc2C(=O)O)cc1 [Compound 13a, 2-Amino-5-(p-tolyl)thiazole-4-carboxylic acid]
